Assay: Effects of age and gender on PK parameters, study 101 (1×400 mg with and without food)
Type: in vivo, human
Procedure: In addition, the robustness of the results are assessed by applying similar analysis approaches to the data from two other studies: • Study AN151607-101 (hereafter referred to as the 101 study): a two-period, randomized crossover trial with treatment conditions 1×400 mg with food and 1×400 mg without food; • Study AN151607-106 (hereafter referred to as the 106 study): a single dose trial with treatment condition 2×400 mg without food.
Study 101 was a two-period randomized crossover trial conducted in 42 healthy volunteers. The mean age was 23.8 years, with a range from 18 to 42 years. The treatment conditions were 1×400 mg with food and 1×400 mg without food. Because the treatments were not the same as in the 103 and 105 studies (1×400 mg in study 101, as opposed to 2×400 mg in studies 103 and 105), and additionally because the blood sample collection schedules were not the same, it is not possible to combine the 101 data with the data from studies 103 and 105. However, it is possible to independently investigate the effects of age on fed and fasted values of the PK parameters in order to determine if the effects are of similar magnitude and direction to those found in the 103 and 105 studies.
First, Pearson and Spearman correlation coefficients between age and each of the three PK parameters were computed. The correlation coefficients and two-sided p-values from the test of the null hypothesis of no association are shown below in TABLE VIa:
Linear regression models using the natural logarithm of each of the three PK parameters as the dependent variable and age as the independent variable were fitted in order to estimate the magnitude of the associations with age.
Study 101 was a two-period randomized crossover trial conducted in 42 healthy volunteers (31 males, 11 females). The mean age was 23.8 years, with a range from 18 to 42 years. The treatment conditions were 1×400 mg with food and 1×400 mg without food. Because the treatments were not the same as in the 103 and 105 studies, and additionally because the blood sample collection schedules were not the same, it is not possible to combine the 101 data with the data from studies 103 and 105. However, it is reasonable to independently investigate the effects of age and gender on the fed and fasted values of the PK parameters in order to determine if the effects are of similar magnitude and direction to those found in the 103 and 105 studies.
The same regression modeling strategy as was described in Sections 3.2 and 3.3 was also applied. The initial regression models with a gender effect and separate age effects for males and females yielded positive estimates of the age effect for males and negative estimates for females. This was consistent across all three PK parameters. However, none of the age effects was statistically significant and, in addition, there was no significant evidence of interaction between age and gender (all p-values exceeded 0.10). […]

## Cc1cc(C)cc(OCC2CNC(=O)O2)c1 (centres unmarked) [metaxalone, 5-[(3,5-dimethylphenoxy)methyl]-2 oxazolidinone]
fasted
  Proportion of variability explained by age, ln(AUC(inf)): 7.7%
  Proportion of variability explained by age, ln(Cmax): 13.4%
fasted, females n=11
  Pearson correlation, age vs ln(AUC(inf)): 0.208
  Pearson correlation, age vs ln(AUC(last)): 0.284
  Pearson correlation, age vs ln(Cmax): 0.309
  Spearman correlation, age vs ln(AUC(inf)): 0.235
  Spearman correlation, age vs ln(AUC(last)): 0.406
  Spearman correlation, age vs ln(Cmax): 0.525
fasted, males n=31
  Pearson correlation, age vs ln(AUC(inf)): 0.287
  Pearson correlation, age vs ln(AUC(last)): 0.279
  Pearson correlation, age vs ln(Cmax): 0.384
  Spearman correlation, age vs ln(AUC(inf)): 0.115
  Spearman correlation, age vs ln(AUC(last)): 0.127
  Spearman correlation, age vs ln(Cmax): 0.206
fasted, n=42
  Pearson correlation, age vs ln(AUC(inf)): 0.277
  Pearson correlation, age vs ln(AUC(last)): 0.289
  Pearson correlation, age vs ln(Cmax): 0.366
  Spearman correlation, age vs ln(AUC(inf)): 0.146
  Spearman correlation, age vs ln(AUC(last)): 0.161
  Spearman correlation, age vs ln(Cmax): 0.235
fed
  Proportion of variability explained by age, ln(AUC(inf)): 3%
  Proportion of variability explained by age, ln(AUC(last)): 3%
  Proportion of variability explained by age, ln(Cmax): 1%
fed, females n=11
  Pearson correlation, age vs ln(AUC(inf)): −0.165
  Pearson correlation, age vs ln(AUC(last)): −0.188
  Pearson correlation, age vs ln(Cmax): −0.396
  Spearman correlation, age vs ln(AUC(inf)): −0.244
  Spearman correlation, age vs ln(AUC(last)): −0.295
  Spearman correlation, age vs ln(Cmax): −0.645
fed, males n=31
  Pearson correlation, age vs ln(AUC(inf)): 0.268
  Pearson correlation, age vs ln(AUC(last)): 0.271
  Pearson correlation, age vs ln(Cmax): 0.234
  Spearman correlation, age vs ln(AUC(inf)): 0.088
  Spearman correlation, age vs ln(AUC(last)): 0.094
  Spearman correlation, age vs ln(Cmax): 0.169
fed, n=42
  Pearson correlation, age vs ln(AUC(inf)): 0.186
  Pearson correlation, age vs ln(AUC(last)): 0.179
  Pearson correlation, age vs ln(Cmax): 0.102
  Spearman correlation, age vs ln(AUC(inf)): 0.029
  Spearman correlation, age vs ln(AUC(last)): 0.022
  Spearman correlation, age vs ln(Cmax): −0.009

From patent US7714006B1, “Methods of modifying the bioavailability of metaxalone” (King Pharmaceuticals Research & Development, Inc., priority 2001, dated 2010)
